Read-outs that look alike come from different tables or passages of the source.
Experiments:
[1] = clinical; details: human, in vivo
From the text: (§1) Patients underwent dynamic susceptibility contrast perfusion MRI (DSC-MRI) for quantification of relative cerebral blood volume (rCBV) values by region-of-interest analysis.

[2] = tested on: glioblastoma; assay: clinical
From the text: as §1

[3] = tested on: U251 human GBM cells
[4] = in vivo; details: human
[5] = cited from earlier work
[6] = up to 320 μg/kg, healthy volunteers; cited from earlier work
[7] = tested on: human serum albumin and 1-acid glycoprotein; details: cited from earlier work
[8] = cited from earlier work; remark: listed apart in the source
[9] = cited from earlier work; for mean AUC from time 0 to 24 hours postdose, higher than in subjects with normal renal function: single 240 μg/kg SC
[10] = tested on: CD34+ cell mobilization; details: cited from earlier work
[11] = cited from earlier work; remark: listed apart in the source
[12] = tested on: peripheral blood (PB) CD34+ counts; details: cited from earlier work; for absolute CD34+ cell count (mean+/−SE): all patients
[13] = tested on: CD34+ stem cells; details: cited from earlier work
[14] = tested on: CD34+ stem cells; details: cited from earlier work; remark: listed apart in the source
[15] = tested on: BCR-ABL(+) leukemia (CML); details: cited from earlier work
[16] = tested on: CML; details: cited from earlier work
[17] = tested on: AML; details: cited from earlier work
[18] = tested on: AML and MDS; details: cited from earlier work
[19] = tested on: MM; details: cited from earlier work
[20] = tested on: chronic lymphocytic leukemia (CLL); details: cited from earlier work
[21] = cited from earlier work; remark: listed apart in the source
[22] = biological target: CXCR4 (Homo sapiens, UniProt P61073); details: cited from earlier work
[23] = 23 evaluable patients, with bortezomib

Chain of CXCR4 (P61073 whole entry): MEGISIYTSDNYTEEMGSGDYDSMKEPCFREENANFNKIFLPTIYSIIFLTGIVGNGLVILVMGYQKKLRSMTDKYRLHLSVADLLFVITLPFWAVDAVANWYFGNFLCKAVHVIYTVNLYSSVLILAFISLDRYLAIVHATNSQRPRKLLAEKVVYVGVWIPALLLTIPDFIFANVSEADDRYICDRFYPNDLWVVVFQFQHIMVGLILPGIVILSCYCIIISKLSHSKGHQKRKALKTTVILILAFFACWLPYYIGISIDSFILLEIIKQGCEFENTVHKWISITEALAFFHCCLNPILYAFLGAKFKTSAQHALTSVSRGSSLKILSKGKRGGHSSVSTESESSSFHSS

c1cc(CN2CCCNCCNCCCNCC2)ccc1CN1CCCNCCNCCCNCC1 [Plerixafor]
concentration at 7 days [1]: ≥ 100 ng/mL | rCBV in the tumor bed compared to the postoperative pre-RT scan ([2]; DSC-MRI at 1 and 6 months post-RT, P<0.02, one way ANOVA): lower rCBV | patients alive ([2]; currently): 7 of 9 | dose limiting toxicities (DLTs) ([2]; human, in vivo): no DLTs observed | longest survival since diagnosis ([2]; human, in vivo): 18 months | recommended phase II dose ([2]; human, in vivo, iv, 4 weeks): 16.6 µg/kg/h | blood flow to a tumor ([3]; after 40 days, radiotherapy and Plerixafor compared to radiotherapy alone (FIG. 5A)): lower blood flow | tumor size ([3]; over 80 days, radiation and Plerixafor (continuous infusion) compared to other treatment groups (FIG. 5B, 5C)): reduced tumor size | circulating neutrophils (days 4, 8, 15, 22, 29 during infusion vs Screening (FIG. 8A)): increase of neutrophils | circulating monocytes (days 4, 8, 15, 22, 29 during infusion vs Screening (FIG. 8B)): increase in monocytes | MTD [4]: ~1.8 mg/kg | Cmax and AUC0-∞ across the four dose levels ([5]; 10, 20, 40, 80 μg/kg): dose proportionality | Cmax ([5]; IV, 40 μg/kg): 292.8±67.0 | Cmax ([5]; IV, 80 μg/kg): 503.9±29.6 | Cmax ([5]; SC, 40 μg/kg): 123.5±27.9 | Cmax ([5]; SC, 80 μg/kg): 238.3±17.3 | terminal elimination half-life ([5]; following a single dose, bi-exponential elimination from plasma): 3.5 to 5 h | time of peak plasma levels ([5]; following subcutaneous administration): 0.5 to 1 h | bioavailability ([5]; human, in vivo): 80-90% | pharmacokinetics over the tested dose range [6]: linear pharmacokinetics | protein binding [7]: extensively protein bound | median terminal half-life ([8]; 240 μg/kg SC with G-CSF): 4.6 h | time of peak plasma concentrations ([8]; 240 μg/kg SC with G-CSF, in most patients): 0.5 h | time of maximum fold increase in circulating cells ([8]; after Plerixafor injection, all patients): approximately 10 hours | median maximum increase in the number of circulating cells from baseline ([8]; range, 3.0- to 5.5-fold): 4.2 fold | effect of renal impairment on maximal plasma concentrations ([9]; human, in vivo): no effect | mean AUC from time 0 to 24 hours postdose, higher than in subjects with normal renal function ([9]; mild renal impairment): 7% | mean AUC from time 0 to 24 hours postdose, higher than in subjects with normal renal function ([9]; moderate renal impairment): 32% | mean AUC from time 0 to 24 hours postdose, higher than in subjects with normal renal function ([9]; severe renal impairment): 39% | safety profile ([9]; subjects with renal impairment vs controls): similar | Plerixafor clearance ([9]; subjects with renal impairment, positively correlated with creatinine clearance): reduced | most frequently reported adverse effects ([10]; human, in vivo): injection site reactions, gastrointestinal (GI) effects, paresthesias, and headaches | augmentation of CD34+ cell mobilization by G-CSF ([10]; on average): 3.8 fold | safety and tolerability ([10]; single SC dose 160 or 240 μg/kg alone or added to G-CSF): generally safe and well-tolerated | Sinus tachycardia (all Grade 1) ([11]; 400 and 480 μg/kg doses): observed in most subjects | maximum tolerated dose ([11]; doses of up to 480 μg/kg SC and IV in healthy volunteers and cancer patients): has not been established | common adverse events ([11]; doses up to 480 μg/kg): diarrhea, injection site erythema, perioral numbness, sinus tachycardia, headache, nausea, abdominal distention and injection site pain | total white blood cell (WBC) and peripheral blood (PB) CD34+ counts ([12]; 4 and 6 hours following a single injection): rapid and statistically significant increase | absolute CD34+ cell count (mean+/−SE) ([12]; 4 hours after injection, baseline 2.6+/−0.7/μL, P=0.002): 15.6 ± 3.9 µL⁻¹ | absolute CD34+ cell count ([12]; 4 hours, 160 μg/kg group): 11.3 ± 2.7 µL⁻¹ | absolute CD34+ cell count ([12]; 4 hours, 240 μg/kg group): 19.3 ± 6.9 µL⁻¹ | absolute CD34+ cell count (mean+/−SE) ([12]; 6 hours after injection, P=0.003): 16.2 ± 4.3 µL⁻¹ | absolute CD34+ cell count ([12]; 6 hours, 160 μg/kg group): 11.3 ± 2.5 µL⁻¹ | absolute CD34+ cell count ([12]; 6 hours, 240 μg/kg group): 20.4 ± 7.6 µL⁻¹ | toxicities ([12]; single injection 160 or 240 μg/kg): only grade 1 toxicities were observed | proportion of patients with NHL able to mobilize minimum (2×10^6 cells/kg) and target (5×10^6 cells/kg) CD34+ cells ([13]; Plerixafor 240 μg/kg added to G-CSF): significantly increased the proportion of patients | apheresis days to reach both targets ([13]; Plerixafor added to G-CSF): significantly fewer apheresis days | proportion of patients with MM able to mobilize the target (6×10^6 cells/kg) CD34+ cells ([14]; Plerixafor 240 μg/kg added to G-CSF compared with G-CSF alone): significantly increased the proportion of patients | apheresis days to reach target ([14]; Plerixafor added to G-CSF): significantly fewer apheresis days | sensitivity to the tyrosine kinase inhibitors Imatinib and Nilotinib [15]: confer added sensitivity | tumor cell chemotaxis [15]: inhibit tumor cell chemotaxis | leukemia burden in mice ([16]; added to nilotinib, vs nilotinib alone): significantly reduced | mobilization of leukemic cells ([16]; in vivo): mobilize leukemic cells in vivo | early death due to complications from infection ([17]; 2 patients): 6% | treatment failure due to persistent disease ([17]; 14 patients): 44% | complete remission (CR+CRi) ([17]; 32 evaluable patients at 240 μg/kg, historical CR rates 25-35%): 50% | platelet recovery (plt >50 k/mm3), median ([17]; Plerixafor + MEC, range 20-40 d): 26 days | neutrophil recovery (ANC >500/mm3), median ([17]; Plerixafor + MEC, range 21-37): 27 days | time of peak AML blast mobilization ([17]; after administration): 6 to 8 h | One year KM estimate of overall survival ([17]; in vivo): 56% | common grade 3 adverse events ([17]; in vivo): cytopenias and infections | hyperleukocytosis ([17]; in vivo): No evidence of hyperleukocytosis | mobilization of AML blasts into the peripheral circulation, mean increase ([17]; range 0.9-7.3 fold): 2.5 fold | early death due to complications from intracranial hemorrhage ([18]; 1 patient): 4% | treatment failure due to persistent disease ([18]; 1 patient): 4% | Grade I-II GVHD ([18]; 10/27 patients): 37% | treatment failure due to relapsed disease ([18]; 10 patients): 37% | patients with common grade 3 adverse events ([18]; 24/27, neutropenic fever, infections, or rash): 89% | Median progression-free survival (PFS) ([18]; all patients, 95% CI: 18.1-33.9 wks): 26.6 wks | Grade III-IV GVHD ([18]; human, in vivo, iv): no occurrences | toxicities ascribed to the G-CSF/Plerixafor component of the regimen ([18]; human, in vivo): no toxicities ascribed | patients achieving a CR ([18]; of the 19 patients with active disease at study entry): 18 | platelet recovery (plt >20 k/mm3), median ([18]; range 9-74 d): 12 days | neutrophil recovery (ANC >500/mm3), median ([18]; range 10-19): 12.5 days | Median progression-free survival (PFS) ([18]; relapsed patients, 95% CI: 12.1-26.6 wks): 15.7 wks | MR [19, 23]: 13% | complete response (CR) [19, 23]: 4% | overall response rate (including MR) [19, 23]: 22% | progressive disease (PD) as best response [19, 23]: 13% | very good partial response (VGPR) [19, 23]: 4% | Dose limiting toxicities including insomnia, restlessness, and psychosis ([19]; dose level 6 (Plerixafor 400 μg/kg and bortezomib 1.3 mg/m^2)): observed in two patients | de-adhesion of MM cells and accessory cells ([19]; in vivo): transient de-adhesion of MM cells and accessory cells in vivo in most of the patients | Grade 3 anemia ([19]; with bortezomib): 10% | Grade 3 bone fracture due to myeloma bone disease ([19]; with bortezomib): 10% | Grade 3 hypercalcemia ([19]; with bortezomib): 10% | Grade 3 hyponatremia ([19]; with bortezomib): 10% | Grade 3 hypophosphatemia ([19]; with bortezomib): 20% | Grade 3 lymphopenia ([19]; with bortezomib): 40% | grade 4 toxicities ([19]; with bortezomib): no grade 4 toxicities | tolerability of the combination ([19]; with bortezomib): well tolerated | mobilization of CLL cells ([20]; 80, 160, 240, 320 μg/kg, preliminary results): mobilized to the peripheral blood in a dose-dependent fashion | tolerability of the combination of Plerixafor and rituximab ([20]; CLL patients with WBC <50×109/L): well tolerated | dose limiting toxicities ([20]; with rituximab): no dose limiting toxicities were reported | most common adverse events ([20]; with rituximab): nausea, fatigue, chills, and diarrhea | remissions ([20]; with rituximab): partial remissions were seen in a proportion of patients | MTD ([21]; animals, adverse neurologic effects): approximately 70 mg/m^2 | dose limiting toxicities (DLTs) ([21]; including severe dyspnea, tremors, ventral recumbency, convulsions at higher dosages): primarily adverse neurologic events | inhibition of the binding of SDF-1a (CXCL12) to CXCR4 [22]: reversible inhibitor

Reference: US20180344690A1, “Methods and Formulation for Enhancing Response to Radiotherapy” (The Board of Trustees of the Leland Stanford Junior …, priority 2017, published 2018)
